Laboratory results from the supplement of paper PMC6045584.
± gives the standard deviation of the averaged measurements.

Key:
[1] = compound: Cn1cc(C2=Nc3cc(NC(=O)C(N)C4CCCCC4)cc4c3C2=CNNC4=O)cn1; assay: surviving fraction relative to DMSO-only wells; higher = less growth inhibition; details: exposure time: 5 days
In short: (§1)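 Inhibitors at 0.5, 1, 5, 10, 50, 100, 500 and 1000 nM were applied continuously for five days to tumour cell lines seeded in log phase at 250–500 cells per well in 384-well plates 24 hours earlier. Viability was measured by CellTiter-Glo luminescence and expressed as surviving fraction relative to the median of DMSO-only wells. Luminescence was taken after 10 minutes at room temperature.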

MDV3100 [2] = compound: T1, CNC(=O)c1ccc(N2C(=S)N(c3ccc(C#N)c(C(F)(F)F)c3)C(=O)C2(C)C)cc1F [MDV3100]; assay: as above; details: exposure time: 5 days
In short: as §1

BI-2536 = compound: CC[C@@H]1C(=O)N(C)c2cnc(Nc3ccc(C(=O)NC4CCN(C)CC4)cc3OC)nc2N1C1CCCC1 [BI-2536]; assay: area under dose-response curve of surviving fraction (unscaled, Aref=0) (surviving fraction x log10(nM)); higher = more resistant; details: exposure time: 5 days; dose range 0.5-1000 nM
In short: (§2)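 Inhibitor was applied to tumour cell lines at eight concentrations (0.5 to 1000 nM) for five days in 384-well plates. Luminescence from CellTiter-Glo, scaled to DMSO-only wells, gave surviving fractions in three screens per line, and these were fitted by 3-parameter logistic regression with the drc R package. The area under the curve is an unscaled activity area. Aref was 0, and dose was on a log10 scale.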

CANERTINIB = compound: C=CC(=O)Nc1cc2c(Nc3ccc(F)c(Cl)c3)ncnc2cc1OCCCN1CCOCC1 [CANERTINIB]; assay: as above; details: exposure time: 5 days; dose range 0.5-1000 nM
In short: as §2

MDV3100 [3] = compound: T1, MDV3100; assay: as above; details: exposure time: 5 days; dose range 0.5-1000 nM
In short: as §2

SNX-5422 = compound: CC1(C)CC(=O)c2c(C(F)(F)F)nn(-c3ccc(C(N)=O)c(N[C@H]4CC[C@H](OC(=O)CN)CC4)c3)c2C1 [SNX-5422]; assay: as above; details: exposure time: 5 days; dose range 0.5-1000 nM
In short: as §2

Row | Test System | surviving fraction ([1]; 0.5 nM) | surviving fraction ([1]; 1 nM) | surviving fraction ([1]; 5 nM) | surviving fraction ([1]; 10 nM) | surviving fraction ([1]; 50 nM) | surviving fraction ([1]; 100 nM) | surviving fraction ([1]; 500 nM) | surviving fraction ([1]; 1000 nM) | surviving fraction (MDV3100 [2]; 0.5 nM) | surviving fraction (MDV3100 [2]; 1 nM) | surviving fraction (MDV3100 [2]; 5 nM) | surviving fraction (MDV3100 [2]; 10 nM) | surviving fraction (MDV3100 [2]; 50 nM) | surviving fraction (MDV3100 [2]; 100 nM) | surviving fraction (MDV3100 [2]; 500 nM) | surviving fraction (MDV3100 [2]; 1000 nM) | area under dose-response curve (BI-2536) | area under dose-response curve (CANERTINIB) | area under dose-response curve (MDV3100 [3]) | area under dose-response curve (SNX-5422)
1 | MFM223 BREAST | 1.15 ± 0.029 | 1.1 ± 0.012 | 1.09 ± 0.11 | 1.05 ± 0.069 | 0.748 ± 0.047 | 0.408 ± 0.036 | 0.226 ± 0.018 | 0.193 ± 0.025 | 1.1 ± 0.12 | 1.14 ± 0.17 | 1.19 ± 0.17 | 1.12 ± 0.17 | 1.06 ± 0.074 | 1.08 ± 0.041 | 1.09 ± 0.036 | 1.02 ± 0.095 | 0.566 | 2.88 | 3.56 | 2.02
2 | MHM BONE | 0.998 ± 0.018 | 1.01 ± 0.032 | 1.051 ± 0.01 | 1.031 ± 0.002 | 1.12 ± 0.021 | 1.15 ± 0.034 | 0.394 ± 0.034 | 0.183 ± 0.02 | 1 ± 0.039 | 1 ± 0.054 | 1.01 ± 0.025 | 1.01 ± 0.039 | 1.02 ± 0.02 | 1.01 ± 0.029 | 0.973 ± 0.012 | 0.952 ± 0.0046 | 2.08 | 3.2 | 3.28 | 2.48
3 | NCIH441 LUNG | 0.975 ± 0.037 | 1.01 ± 0.018 | 1.01 ± 0.05 | 1.06 ± 0.084 | 1.04 ± 0.024 | 0.895 ± 0.078 | 0.401 ± 0.031 | 0.319 ± 0.0068 | 1.02 ± 0.05 | 1.04 ± 0.066 | 1.03 ± 0.052 | 1 ± 0.071 | 1.05 ± 0.077 | 0.924 ± 0.11 | 0.956 ± 0.16 | 0.863 ± 0.11 | 1.79 | 3.05 | 3.25 | 2.63
4 | OS25HAL BONE | 1.014 ± 0.01 | 1.03 ± 0.042 | 1.005 ± 0.0044 | 1.012 ± 0.0078 | 0.978 ± 0.045 | 0.984 ± 0.012 | 0.0757 ± 0.017 | 0.0387 ± 0.0011 | 0.968 ± 0.03 | 0.932 ± 0.015 | 0.962 ± 0.018 | 0.959 ± 0.011 | 1.06 ± 0.013 | 1.06 ± 0.03 | 1.04 ± 0.026 | 1.01 ± 0.057 | 0.792 | 3.13 | 3.23 | 2.27
5 | OSHN BONE | 1.05 ± 0.044 | 1.077 ± 0.001 | 1.05 ± 0.018 | 1.062 ± 0.0075 | 0.959 ± 0.021 | 0.924 ± 0.017 | 0.0477 ± 0.0023 | 0.0277 ± 0.00058 | 1.04 ± 0.02 | 1.02 ± 0.019 | 1.025 ± 0.0047 | 1.01 ± 0.015 | 1.067 ± 0.0085 | 1.07 ± 0.04 | 1.07 ± 0.026 | 1.041 ± 0.0068 | 1.13 | 3.16 | 3.44 | 2.25
6 | PCI30 HEADNECK | 0.977 ± 0.021 | 0.929 ± 0.027 | 0.994 ± 0.051 | 0.945 ± 0.014 | 0.913 ± 0.029 | 0.668 ± 0.039 | 0.365 ± 0.025 | 0.333 ± 0.012 | 0.908 ± 0.034 | 0.831 ± 0.075 | 0.954 ± 0.071 | 1.01 ± 0.08 | 1.09 ± 0.056 | 1 ± 0.014 | 0.861 ± 0.088 | 0.945 ± 0.036 | 1.08 | 2.01 | 3.18 | 2.2
7 | SAOS2 BONE | 1.1493 ± 0.00058 | 1.08 ± 0.049 | 1.073 ± 0.0011 | 1.17 ± 0.077 | 0.882 ± 0.065 | 0.728 ± 0.03 | 0.113 ± 0.017 | 0.0473 ± 0.0046 | 1.08 ± 0.054 | 1.07 ± 0.026 | 1.17 ± 0.026 | 1.07 ± 0.031 | 1.14 ± 0.033 | 1.14 ± 0.1 | 1.11 ± 0.085 | 1.07 ± 0.12 | 0.684 | 2.87 | 3.65 | 1.96
8 | SCC003 HEADNECK | 1.03 ± 0.12 | 1.05 ± 0.21 | 1.1 ± 0.083 | 1.12 ± 0.041 | 1.1 ± 0.14 | 1.1 ± 0.095 | 0.902 ± 0.11 | 0.86 ± 0.12 | 0.928 ± 0.12 | 0.808 ± 0.069 | 1 ± 0.049 | 0.996 ± 0.051 | 1.06 ± 0.032 | 1.02 ± 0.059 | 1.02 ± 0.044 | 0.858 ± 0.098 | 1.71 | 2.54 | 3.21 | 2.21
9 | SCC36 HEADNECK | 0.976 ± 0.11 | 0.979 ± 0.038 | 1.07 ± 0.062 | 1.05 ± 0.12 | 0.753 ± 0.026 | 0.678 ± 0.045 | 0.282 ± 0.037 | 0.19 ± 0.025 | 0.992 ± 0.091 | 0.955 ± 0.1 | 0.957 ± 0.065 | 1.11 ± 0.068 | 1.09 ± 0.028 | 1.03 ± 0.059 | 0.924 ± 0.051 | 0.907 ± 0.099 | 1.03 | 2.1 | 3.27 | 2.06
10 | SCC47 HEADNECK | 1.02 ± 0.015 | 1.03 ± 0.13 | 1.1 ± 0.065 | 1.08 ± 0.11 | 1 ± 0.027 | 1.01 ± 0.054 | 0.981 ± 0.011 | 0.81 ± 0.094 | 0.936 ± 0.15 | 0.826 ± 0.021 | 1 ± 0.04 | 1.05 ± 0.21 | 1.09 ± 0.17 | 1.03 ± 0.14 | 0.906 ± 0.04 | 0.829 ± 0.11 | 1.87 | 2.83 | 3.22 | 2.08
11 | SG31 HEADNECK | 1.01 ± 0.076 | 1.06 ± 0.18 | 0.908 ± 0.1 | 0.901 ± 0.11 | 0.881 ± 0.11 | 0.825 ± 0.02 | 0.79 ± 0.021 | 0.669 ± 0.052 | 0.928 ± 0.059 | 1.06 ± 0.037 | 1.01 ± 0.14 | 1.02 ± 0.14 | 1.07 ± 0.057 | 0.969 ± 0.17 | 1.18 ± 0.18 | 1.06 ± 0.028 | 2.2 | 2.3 | 3.39 | 2.1
12 | SIHA CERVIX | 1.053 ± 0.0049 | 0.972 ± 0.02 | 1.06 ± 0.086 | 1.06 ± 0.043 | 1.02 ± 0.05 | 1.05 ± 0.07 | 0.917 ± 0.059 | 0.524 ± 0.024 | 0.88 ± 0.024 | 0.824 ± 0.067 | 0.999 ± 0.038 | 0.97 ± 0.057 | 1.01 ± 0.076 | 0.975 ± 0.043 | 0.875 ± 0.086 | 0.844 ± 0.055 | 1.43 | 2.92 | 3.05 | 2.2
13 | SNU475 LIVER | 0.965 ± 0.028 | 0.967 ± 0.053 | 0.987 ± 0.013 | 1.01 ± 0.02 | 0.892 ± 0.038 | 0.898 ± 0.046 | 0.731 ± 0.034 | 0.514 ± 0.082 | 1.03 ± 0.034 | 0.903 ± 0.024 | 1 ± 0.039 | 0.438 ± 0.011 | 1.01 ± 0.018 | 0.902 ± 0.016 | 0.974 ± 0.014 | 0.516 ± 0.02 | 1.41 | 2.91 | 2.8 | 2.29
14 | SUM44 BREAST | 0.896 ± 0.016 | 0.936 ± 0.059 | 0.905 ± 0.072 | 0.594 ± 0.03 | 0.349 ± 0.028 | 0.239 ± 0.0068 | 0.232 ± 0.017 | 0.301 ± 0.015 | 0.963 ± 0.096 | 0.978 ± 0.08 | 1.06 ± 0.081 | 1.04 ± 0.058 | 1.13 ± 0.13 | 1.09 ± 0.1 | 1.03 ± 0.071 | 1.01 ± 0.1 | 0.689 | 2.78 | 3.43 | 2.47
15 | SUM149 BREAST | 0.875 ± 0.087 | 0.854 ± 0.13 | 0.874 ± 0.14 | 0.911 ± 0.1 | 0.481 ± 0.067 | 0.238 ± 0.047 | 0.0587 ± 0.0096 | 0.063 ± 0.0062 | 1.03 ± 0.047 | 0.922 ± 0.087 | 0.897 ± 0.038 | 0.36 ± 0.043 | 1.07 ± 0.095 | 0.951 ± 0.021 | 1.01 ± 0.092 | 0.546 ± 0.013 | 0.784 | 1.76 | 2.73 | 1.7
